Laboratory results: patent US12171766B2, “Methods of treating patients suffering from brain injury and methods of increasing the value of the extended Glasgow Outcome Scale of patients suffering from brain injury” (VERINOS OPERATIONS GMBH, priority 2021, dated 2024)

Experiment: NOSTRA phase III trial: exposure control (pharmacokinetics), samples after end of infusion and 12 hours after end of infusion
Format: in vivo, human
Conditions: TBI patients
Procedure: An exposure control was performed with samples collected after end of infusion and 12 hours after end of infusion. Due to the high sensibility of Ronopterin to oxidation, no utilizable values could be obtained for Ronopterin and, therefore, the first metabolite, 4-amino-dihydrobiopterin, was used as a surrogate. The mean absolute concentration for the first metabolite of Ronopterin was 1071 ng/mL at the end of the infusion and 476 ng/mL 12 hours later (56% elimination). The mean absolute value for the second Ronopterin metabolite was 52 ng/mL at the end of the infusion and 37 ng/mL 12 hours after end of infusion.

[1] = Ronopterin 17 mg/kg infused for 48 hours

elimination within 12 hours after end of infusion: 56%
mean absolute concentration 12 hours after end of infusion [1]: 476 ng/mL
mean absolute concentration at the end of the infusion [1]: 1071 ng/mL
Structure (SMILES): C[C@H](O)[C@H](O)C1=Nc2c(N)nc(N)nc2NC1 [4-amino-dihydrobiopterin]
